Measurements published in a compilation of properties of binary mixtures (doi:10.1021/je100671v).

Assay: xn = mol fraction of the nth substance listed
Conditions: 101.3 kPa

CCCCCCCC(=O)[O-].c1c[nH+]c[nH]1 + CC#N
viscosity [mPa·s]
Conditions	x2 = 0	x2 = 0.1044	x2 = 0.1986	x2 = 0.298	x2 = 0.4005	x2 = 0.499	x2 = 0.5995	x2 = 0.6924	x2 = 0.7988	x2 = 0.8996
293.15 K	88.5	66	50.42	–	25.96	–	–	5.8	2.747	–
298.15 K	71.3	54.3	41.88	32	22.7	16.11	10	6.3	3.3	1.199
303.15 K	–	–	35.3	27.47	20.17	14.67	–	5.6	2.402	1.21
308.15 K	45.3	37	30.04	23.68	17.89	–	8.4	5.5	2.808	1.241
313.15 K	36.92	31.4	26.1	20.83	15.6	11.4	7.4	4.4	2.23	1.397
318.15 K	30.56	26.31	22.3	–	–	10.7	7.51	5.1	3.1	1.77
323.15 K	25.33	22.52	19.55	16.21	13.2	–	–	5.38	3.223	1.6

CCCCCCCC(=O)[O-].c1c[nH+]c[nH]1 + CCCCCCCCO
viscosity [mPa·s]
Conditions	x2 = 0	x2 = 0.1011	x2 = 0.1999	x2 = 0.2991	x2 = 0.4	x2 = 0.5007	x2 = 0.6005	x2 = 0.6999	x2 = 0.799	x2 = 0.8997
293.15 K	88.5	78	64.4	51.03	–	30.85	–	18	13.4	10.5
298.15 K	71.3	63.2	52.31	41.9	–	–	–	15.39	11.7	–
303.15 K	56.48	50.26	42.2	34.44	27.5	21.67	–	13.24	10	8.33
308.15 K	45.3	–	34.63	28.56	23.23	18.76	14.95	–	9.4	7.64
313.15 K	36.92	33.14	28.5	23.44	19.4	15.57	–	9.79	7.5	5.94
318.15 K	30.56	–	23.63	19.8	16.4	13.05	10.7	8.46	–	–
323.15 K	25.33	–	20.17	–	14.21	11.6	9.4	7.48	5.9	–

CCCCCCCC(=O)[O-].c1c[nH+]c[nH]1 + CCO
viscosity [mPa·s]
Conditions	x2 = 0	x2 = 0.1043	x2 = 0.1984	x2 = 0.301	x2 = 0.4	x2 = 0.4786	x2 = 0.5999	x2 = 0.7006	x2 = 0.7999	x2 = 0.8989
293.15 K	88.5	68.7	–	–	29.8	22.9	–	10.32	6.03	3.236
298.15 K	71.3	55.78	44.5	34	25.5	20	13.3	9.32	5.47	–
303.15 K	56.48	–	36.53	28.9	22.3	17.8	–	8.4	4.93	–
308.15 K	45.3	36.81	30.43	24.8	19.9	16.4	11.4	7.77	4.54	2.471
313.15 K	–	31	26.09	–	17.2	14	–	–	4.19	2.278
318.15 K	30.56	26.2	22.4	18.8	15.3	12.6	–	6.3	3.96	–
323.15 K	25.33	22.3	19.6	16.7	14.1	12	8.9	6.4	4.43	–

CCCCCCCC(=O)[O-].c1c[nH+]c[nH]1 + O
viscosity [mPa·s]
Conditions	x2 = 0	x2 = 0.0989	x2 = 0.1964	x2 = 0.3042	x2 = 0.4091	x2 = 0.5119	x2 = 0.6017	x2 = 0.6643	x2 = 0.7995	x2 = 0.8154
293.15 K	88.5	67.9	58.6	–	–	45.7	–	34.9	22.18	20.63
298.15 K	71.3	54.06	46.3	43.3	41.1	–	32.99	29.09	–	17.59
303.15 K	56.48	41.7	36.57	–	33	30.4	27.23	–	16	14.75
308.15 K	45.3	33.19	29.22	27.6	26.5	25	22.3	20.32	13.52	12.62
313.15 K	36.92	27.32	–	22.8	21.89	20.82	18.94	17.17	11.72	–
318.15 K	30.56	–	20.39	–	18.6	17.87	–	14.9	10.4	–
323.15 K	–	–	17.55	–	16.17	15.72	14.35	13.4	9.76	–

CC#N + c1c[nH+]c[nH]1.CCCCCCCC(=O)[O-]
x1 = 1
Conditions	viscosity [mPa·s]
293.15 K	0.35
303.15 K	0.325
308.15 K	0.292
313.15 K	0.279
318.15 K	0.245

CCCCCCCCO + c1c[nH+]c[nH]1.CCCCCCCC(=O)[O-]
x1 = 1
Conditions	viscosity [mPa·s]
298.15 K	7.84
303.15 K	6.42
308.15 K	5.34
313.15 K	4.66
318.15 K	3.7
323.15 K	2.84

CCO + c1c[nH+]c[nH]1.CCCCCCCC(=O)[O-]
x1 = 1
Conditions	viscosity [mPa·s]
298.15 K	1.1
308.15 K	0.91
313.15 K	0.83
318.15 K	0.72
323.15 K	0.615

O + c1c[nH+]c[nH]1.CCCCCCCC(=O)[O-]
x1 = 1
Conditions	viscosity [mPa·s]
298.15 K	0.89
303.15 K	0.797
323.15 K	0.556
